Assay results from article PMC11403612, “Preparation and Preclinical Characterization of a Simple Ester for Dual Exogenous Supply of Lactate and Beta-hydroxybutyrate” (Journal of Agricultural and Food Chemistry, 2024).

Assays:
[1] = In vitro stability in simulated gastric fluid; format: in vitro ADME; details: simulated gastric fluid (SGF), pH = 1
Experimental: The in vitro stability of LaKe was evaluated following incubation in simulated gastric fluid (SGF), simulated intestinal fluid (SIF), fresh and frozen plasma (rats and humans, respectively), and the presence of hepatocytes (rats and humans) and liver microsomes (rats and humans). At the chosen time points, the mixtures were analyzed by LC-MS/MS to quantify the remaining LaKe and all assays included at least one control compound with known pharmacokinetic properties. […]
centrifuged at 4000 rpm, 4℃ for 20 min. 60 μL of supernatant was mixed with 180 μL of purified water for subsequent LC/MS/MS analysis.
LC-MS/MS Condition: ACQUITY UPLC BEH C18 1.7um 2.1 * 50mm Column (Part No.186002350). Mobile phase: A: 0.1% Formic Acid in Water; B: 0.1% Formic Acid in ACN. […]
Samples were incubated at 37 ℃, 600 rpm for the appointed time. At the chosen time points (60, 120, 360, 1440 minutes) samples were immediately mixed with 400 μL of cold acetonitrile containing 200 ng/mL tolbutamide and labetalol (internal standards). 200 μL of suspension was removed and mixed completely with 400 μL of cold acetonitrile containing 200 ng/mL tolbutamide and labetalol again. The T0 samples were prepared by transferring 198 μL of SIF solution to corresponding well after adding 400 μL of cold acetonitrile containing 200 ng/mL tolbutamide and then mixing completely. The samples were […]
Stability of LaKe in plasma […]

[2] = Hepatocyte stability of LaKe, human; format: in vitro ADME; details: cryopreserved hepatocytes
[3] = test system: N-L-lactoyl-phenylalanine (Lac-Phe); test: Plasma N-L-lactoyl-phenylalanine after oral LaKe in rats; format: in vivo, Sprague–Dawley rats; details: 4.5 g/kg oral
Experimental: Male Sprague–Dawley rats (300–350g, Taconic, Ry, Denmark) were kept for acclimatization at a constant temperature of 23 °C with a 12 h light-dark cycle and with unlimited access to food and water. All animal handling was in accordance with national guidelines in Denmark and the guidelines from the Directive 2010/63/EU of the European Parliament on the protection of animals used for scientific purposes, and all experiments conformed to Danish Law (Act. No. 1306 of 23/11/2007). The experimental protocol was approved by the Danish Animal Expectorate (2018-15-0201-01475).
The rats were randomly selected to receive either LaKe (n = 8) or placebo (n = 8). […]
Concentrations of non-esterified free fatty acids (FFA) were measured using a NEFA-HR(2) kit (Wako, Chemicals Gmbh, Germany). Absorbance was measured by spectrometry (PHERAstar FS, BMG LABTECH, […]
Quantification of N-L-lactoyl phenylalanine (Lac-Phe) by LC-MS/MS […]
Pure calibrant samples were prepared from an authentic standard compound (N-L-lactoyl phenylalanine), using the plasma sample preparation method at concentrations equivalent to […] in the original sample. The lower limit of quantification for N-L-lactoyl phenylalanine (Lac-Phe) quantification was estimated to 10 nM. […]

CC(O)CCOC(=O)C(C)O (stereo not drawn) [LaKe, 3-hydroxybutyl 2-hydroxypropanoate]
half-life [1]: > 12 h
half-life at 0.1 mg/mL [2]: < 0.5 h
change in plasma Lac-Phe [3]: increase
